Data taken from paper PMC10746280, “Bacterial efflux pump modulators prevent bacterial growth in macrophages and under broth conditions that mimic the host environment” (mBio, 2023).

How the values were obtained:
[1] = system: S. Typhimurium SL1344 (sifB::gfp) in RAW 264.7 macrophages; assay: SAFIRE macrophage assay: intracellular bacterial load (GFP signal within macrophages); assay type: cell-based, Salmonella enterica serotype Typhimurium; details: for IC50: Salmonella enterica, TYPHIMURIUM, RAW264.7, read-out: SAFIRE IC50
Source text: (§1) In SAFIRE, we used MATLAB software to count the number of macrophages that remain adherent and retain the red fluorescence of MitoTracker, an indicator of voltage across the mitochondrial inner membrane. MATLAB then calculates the signal from bacteria (green fluorescent protein [GFP]) that overlaps with macrophages, as defined by MitoTracker, to estimate bacterial load. […] For example, we observed that the 6-trifluoropyrimidin-2-yl group on the right-hand side of EPM35 is apparently toxic to macrophages. Non-toxic analogs that reduced bacterial load by at least 60% at 5 µM and 25 µM in SAFIRE, as compared with DMSO, progressed and were evaluated in SAFIRE across eight or more concentrations, ranging from 0.001 µM to 50 µM (n = 2). […] Each of the top 13 analogs had at least an eightfold increase in potency and were not toxic for macrophages at 50 µM in the SAFIRE assay (Fig. 1C).
(§2) As previously described ([18]), RAW 264.7 macrophages (between passages 1 and 6) were grown in complete Dulbecco’s modified Eagle’s medium (DMEM) to approximately 70% to 90% confluence, scraped, washed, resuspended, diluted to 5 × 10^4 in 100 µL, and seeded in black, 96-well, glass-bottomed plates (Brooks Life Sciences catalog number MGB096-1-2-LG-L) at 37°C with 5% CO2. Twenty-four hours later, bacteria grown overnight in LB were diluted into 50 µL phosphate buffered saline (PBS) and added to a final concentration of 1 × 10^7 S. Typhimurium SL1344 (sifB::gfp) per milliliter ([78]) for an approximate multiplicity of infection of 30 bacteria per macrophage cell. Forty-five minutes after bacterial addition, gentamicin (Sigma catalog number G1264) was added to a final concentration of 40 µg/mL to inhibit the growth of remaining extracellular bacteria. Two hours after infection, gentamicin-containing medium was removed and replaced with 200 µL fresh DMEM with compound or DMSO (Sigma catalog number 276855) to the stated final concentrations. At 17.5 h after infection, PBS containing MitoTracker Red CMXRos (Life Technologies catalog number M7512), a vital dye for mitochondrial electric potential, was added to a final concentration of 100 nM. At 18 h after infection, 16% paraformaldehyde was added to a final concentration of 4% and incubated at room temperature for 15 min. Cells were washed twice with PBS and stained for 20 min with 1 µM 4′,6-diamidino-2-phenylindole (DAPI), a vital dye for double-stranded DNA, and stored in 90% glycerol in PBS until imaging. Samples were imaged in six fields of view per well using a semiautomated Yokogawa CellVoyager CV1000 confocal scanner system with a 20×, 0.75-numerical aperture (NA) objective. A MATLAB algorithm calculated bacterial accumulation (GFP fluorescence) within macrophages, as defined by DAPI and MitoTracker Red. GFP^+ macrophage area was defined as the number of GFP-positive pixels per macrophage divided by the total number of pixels per macrophage, averaged across all macrophages in the field ([34]).

[2] = system: RAW 264.7 macrophages; assay: SAFIRE macrophage assay: host toxicity (adherent macrophage count, morphology); assay type: cell-based
Source text: as §1, §2

[3] = 5 uM, 'Toxic' given instead of a score
[4] = 25 uM, 'Toxic' given instead of a score
[5] = 5 uM compound, n=1, DMSO solvent control = 98, rifampicin 2 μg/mL = 65
[6] = 25 uM compound, n=1, DMSO solvent control = 98, rifampicin 2 μg/mL = 65
[7] = 5 uM compound, n=1, DMSO solvent control = 100
[8] = 25 uM compound, n=1, DMSO solvent control = 100

OC(CNC1CCNCC1)COc1ccccc1Cl (stereo not shown) [CU200]
5 uM Avg Antibacterial Score [1, 3]: 92 | 25 uM Avg Antibacterial Score [1, 4]: 65 | 5 uM Avg Cell # Score ([2]; 5 uM): 99 | 25 uM Avg Cell # Score ([2]; 25 uM): 108

N[C@@H]1CCN(C[C@H](O)COc2ccc(Cl)c(Cl)c2)C1 [CU237]
5 uM Avg Antibacterial Score [1, 5]: 34 | 25 uM Avg Antibacterial Score [1, 6]: 11 | IC50 [1]: 8.2 nM | 5 uM Avg Cell # Score [2, 7]: 125 | 25 uM Avg Cell # Score [2, 8]: 107

Cc1cc(CNCC(O)COc2ccc(Cl)c(Cl)c2)sc1C (stereo not shown) [CU135]
5 uM Avg Antibacterial Score [1, 3]: 52 | 25 uM Avg Antibacterial Score [1, 4]: Toxic | 5 uM Avg Cell # Score ([2]; 5 uM): 75 | 25 uM Avg Cell # Score ([2]; 25 uM): 103

CN(CC(O)COc1ccc(Cl)c(Cl)c1)C1CCNC1 (stereo not shown) [CU143]
5 uM Avg Antibacterial Score [1, 3]: 84 | 25 uM Avg Antibacterial Score [1, 4]: 55 | 5 uM Avg Cell # Score ([2]; 5 uM): 113 | 25 uM Avg Cell # Score ([2]; 25 uM): 117

N[C@H]1CC[C@H](NCC(O)COc2ccc(Cl)c(Cl)c2)CC1 (stereo partly shown) [CU246]
5 uM Avg Antibacterial Score [1, 5]: 72 | 25 uM Avg Antibacterial Score [1, 6]: 19 | 5 uM Avg Cell # Score [2, 7]: 117 | 25 uM Avg Cell # Score [2, 8]: 106

O=C1CCCN1C1CCN(CC(O)COc2ccc(Cl)c(Cl)c2)CC1 (stereo not shown) [CU060]
5 uM Avg Antibacterial Score [1, 3]: 98 | 25 uM Avg Antibacterial Score [1, 4]: 83 | 5 uM Avg Cell # Score ([2]; 5 uM): 100 | 25 uM Avg Cell # Score ([2]; 25 uM): 99

COc1cccc(OCC(O)CN2CCC(Nc3nccc(C(F)(F)F)n3)CC2)c1 (stereo not shown) [CU081]
5 uM Avg Antibacterial Score [1, 3]: 102 | 25 uM Avg Antibacterial Score [1, 4]: 17 | 5 uM Avg Cell # Score ([2]; 5 uM): 94 | 25 uM Avg Cell # Score ([2]; 25 uM): 93

OC(COc1ccc(Cl)c(Cl)c1)CN1CC2CC(C1)O2 (stereo not shown) [CU223]
5 uM Avg Antibacterial Score [1, 3]: 104 | 25 uM Avg Antibacterial Score [1, 4]: 103 | 5 uM Avg Cell # Score ([2]; 5 uM): 106 | 25 uM Avg Cell # Score ([2]; 25 uM): 100

NC1CCN(CC(O)COc2ccc(F)c(F)c2)C1 (stereo not shown) [CU172]
5 uM Avg Antibacterial Score [1, 3]: 70 | 25 uM Avg Antibacterial Score [1, 4]: 57 | 5 uM Avg Cell # Score ([2]; 5 uM): 108 | 25 uM Avg Cell # Score ([2]; 25 uM): 103

OC(COc1ccc2ccccc2c1)CN1CCC(Nc2nccc(C(F)(F)F)n2)CC1 (stereo not shown) [CU078]
5 uM Avg Antibacterial Score [1, 3]: 7.5 | 25 uM Avg Antibacterial Score [1, 4]: Toxic | 5 uM Avg Cell # Score ([2]; 5 uM): 87 | 25 uM Avg Cell # Score ([2]; 25 uM): 133

OC(COc1ccc(F)cc1)CN1CCC(Nc2nccc(C(F)(F)F)n2)C1 (stereo not shown) [CU097]
5 uM Avg Antibacterial Score [1, 3]: 100 | 25 uM Avg Antibacterial Score [1, 4]: 6.44 | 5 uM Avg Cell # Score ([2]; 5 uM): 95 | 25 uM Avg Cell # Score ([2]; 25 uM): 95

CCN(CC)C(=O)C1CCN(CC(O)COc2ccc(Cl)c(Cl)c2)CC1 (stereo not shown) [CU059]
5 uM Avg Antibacterial Score [1, 3]: 97 | 25 uM Avg Antibacterial Score [1, 4]: 46 | 5 uM Avg Cell # Score ([2]; 5 uM): 105 | 25 uM Avg Cell # Score ([2]; 25 uM): 88

O=C1OC(COc2ccc(Cl)c(Cl)c2)CN1C1CCNC1 (stereo not shown) [CU146]
5 uM Avg Antibacterial Score [1, 3]: 89 | 25 uM Avg Antibacterial Score [1, 4]: 51 | 5 uM Avg Cell # Score ([2]; 5 uM): 95 | 25 uM Avg Cell # Score ([2]; 25 uM): 117

CC(C)C(=O)NC1CCN(CC(O)COc2ccc(Cl)c(Cl)c2)C1 (stereo not shown) [CU069]
5 uM Avg Antibacterial Score [1, 3]: 95 | 25 uM Avg Antibacterial Score [1, 4]: 52 | 5 uM Avg Cell # Score ([2]; 5 uM): 96 | 25 uM Avg Cell # Score ([2]; 25 uM): 94

CN1CCC(N(C)CC(O)COc2ccc(Cl)c(Cl)c2)C1 (stereo not shown) [CU175]
5 uM Avg Antibacterial Score [1, 3]: 65 | 25 uM Avg Antibacterial Score [1, 4]: 22 | 5 uM Avg Cell # Score ([2]; 5 uM): 108 | 25 uM Avg Cell # Score ([2]; 25 uM): 95

OC(COc1cccc(Cl)c1)CN1CCC(Nc2nccc(C(F)(F)F)n2)CC1 (stereo not shown) [CU102]
5 uM Avg Antibacterial Score [1, 3]: 18 | 25 uM Avg Antibacterial Score [1, 4]: Toxic | 5 uM Avg Cell # Score ([2]; 5 uM): 82 | 25 uM Avg Cell # Score ([2]; 25 uM): 51

OC(COc1ccc(Cl)c(Cl)c1)CN1CCN(Cc2cccc3ccccc23)CC1 (stereo not shown) [CU212]
5 uM Avg Antibacterial Score [1, 3]: Toxic | 25 uM Avg Antibacterial Score [1, 4]: Toxic | 5 uM Avg Cell # Score ([2]; 5 uM): 19 | 25 uM Avg Cell # Score ([2]; 25 uM): 18

CNC1CCN(CC(O)COc2ccc(F)c(F)c2)C1 (stereo not shown) [CU176]
5 uM Avg Antibacterial Score [1, 3]: 83 | 25 uM Avg Antibacterial Score [1, 4]: 58 | 5 uM Avg Cell # Score ([2]; 5 uM): 102 | 25 uM Avg Cell # Score ([2]; 25 uM): 111

OC(COc1cc(Cl)cc(Cl)c1)CN1CCC(Nc2nccc(C(F)(F)F)n2)CC1 (stereo not shown) [CU101]
5 uM Avg Antibacterial Score [1, 3]: 9 | 25 uM Avg Antibacterial Score [1, 4]: Toxic | 5 uM Avg Cell # Score ([2]; 5 uM): 71 | 25 uM Avg Cell # Score ([2]; 25 uM): 73

N=C(N)NC1CCN(CC(O)COc2ccc(Cl)c(Cl)c2)C1 (stereo not shown) [CU197]
5 uM Avg Antibacterial Score [1, 3]: 103 | 25 uM Avg Antibacterial Score [1, 4]: 87 | 5 uM Avg Cell # Score ([2]; 5 uM): 109 | 25 uM Avg Cell # Score ([2]; 25 uM): 117

OC(COc1cc(Cl)cc(Cl)c1)CN1CCC(Nc2nccc(C(F)(F)F)n2)C1 (stereo not shown) [CU088]
5 uM Avg Antibacterial Score [1, 3]: 22 | 25 uM Avg Antibacterial Score [1, 4]: Toxic | 5 uM Avg Cell # Score ([2]; 5 uM): 101 | 25 uM Avg Cell # Score ([2]; 25 uM): 98

N[C@H]1CCN(CC(O)COc2ccc(Cl)c(Cl)c2)C1 (stereo partly shown) [CU194]
5 uM Avg Antibacterial Score [1, 3]: 18 | 25 uM Avg Antibacterial Score [1, 4]: 12 | 5 uM Avg Cell # Score ([2]; 5 uM): 100 | 25 uM Avg Cell # Score ([2]; 25 uM): 103

NC1CCN(C[C@@H](O)COc2ccc(Cl)c(Cl)c2)C1 (stereo partly shown) [CU161]
5 uM Avg Antibacterial Score [1, 3]: 55 | 25 uM Avg Antibacterial Score [1, 4]: 33 | IC50 [1]: 81.4 nM | 5 uM Avg Cell # Score ([2]; 5 uM): 138 | 25 uM Avg Cell # Score ([2]; 25 uM): 113 | toxicity to infected macrophages in SAFIRE ([2]; 16 h after treatment): non-toxic

Cc1ccc(Sc2cccc3nc(N)nc(N)c23)cc1 [EPM43]
5 uM Avg Antibacterial Score [1, 3]: 81 | 25 uM Avg Antibacterial Score [1, 4]: Toxic | 5 uM Avg Cell # Score ([2]; 5 uM): 93 | 25 uM Avg Cell # Score ([2]; 25 uM): 67

OC(COc1ccc(Cl)cc1Cl)CN1CCC(Nc2nccc(C(F)(F)F)n2)CC1 (stereo not shown) [CU038]
5 uM Avg Antibacterial Score [1, 3]: 95 | 25 uM Avg Antibacterial Score [1, 4]: Toxic | 5 uM Avg Cell # Score ([2]; 5 uM): 85 | 25 uM Avg Cell # Score ([2]; 25 uM): 181

N#Cc1ccc(OCC(O)CN2CCC(Nc3nccc(C(F)(F)F)n3)CC2)cc1 (stereo not shown) [CU041]
5 uM Avg Antibacterial Score [1, 3]: 106 | 25 uM Avg Antibacterial Score [1, 4]: 23 | 5 uM Avg Cell # Score ([2]; 5 uM): 85 | 25 uM Avg Cell # Score ([2]; 25 uM): 78

OC(COc1ccc(Cl)c(Cl)c1)CN1CCC(N2CCOCC2)C1 (stereo not shown) [CU029]
5 uM Avg Antibacterial Score [1, 3]: 105 | 25 uM Avg Antibacterial Score [1, 4]: 63 | 5 uM Avg Cell # Score ([2]; 5 uM): 75 | 25 uM Avg Cell # Score ([2]; 25 uM): 146

COc1ccc(OCC(O)CN2CCC(Nc3nccc(C(F)(F)F)n3)CC2)cc1 (stereo not shown) [CU036]
5 uM Avg Antibacterial Score [1, 3]: 102 | 25 uM Avg Antibacterial Score [1, 4]: 24 | 5 uM Avg Cell # Score ([2]; 5 uM): 54 | 25 uM Avg Cell # Score ([2]; 25 uM): 120
